According to ChEMBL document CHEMBL1201862, “PubChem BioAssay data set” (2004):
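The compound was tested at five concentrations on cells cultured in 96-well plates, with a 48-hour exposure period. At the GI50, growth is halved.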 The source made the active and inactive calls. No stated cut-off is given here; in the data, active = GI50 up to about 1.1 µM and inactive = higher.

What was measured:
Test in all cases: NCI anticancer screen, dose series, 48 h
[1] = system: M14
[2] = system: IGROV-1
[3] = system: DU-145
[4] = system: NCI-H460
[5] = system: NCI-H23
[6] = system: COLO 205
[7] = system: RPMI-8226
[8] = system: NCI-H522
[9] = system: SK-OV-3
[10] = system: HCT-15
[11] = system: MDA-N
[12] = system: HCT-116
[13] = system: K562
[14] = system: BT-549
[15] = system: MDA-MB-231
[16] = system: NCI/ADR-RES
[17] = system: OVCAR-4
[18] = system: SNB-75
[19] = system: OVCAR-3
[20] = system: NCI-H226
[21] = system: SNB-19
[22] = system: MDA-MB-435
[23] = system: OVCAR-8
[24] = system: SK-MEL-2
[25] = system: SF-539
[26] = system: A549
[27] = system: HOP-62
[28] = system: HL-60
[29] = system: SW-620
[30] = system: UACC-62
[31] = system: ACHN
[32] = system: KM12
[33] = system: U-251
[34] = system: CCRF-CEM
[35] = system: Hs-578T
[36] = system: MOLT-4
[37] = system: TK-10
[38] = system: SK-MEL-28
[39] = system: HCC 2998
[40] = system: SN12C
[41] = system: CAKI-1
[42] = system: EKVX
[43] = system: MCF7
[44] = system: RXF 393
[45] = system: UACC-257
[46] = system: LOX IMVI
[47] = system: T47D
[48] = system: SR
[49] = system: 786-0
[50] = system: UO-31
[51] = system: HOP-92
[52] = system: PC-3
[53] = system: HT-29
[54] = system: SF-268
[55] = system: A498
[56] = system: Malme-3M
[57] = system: SF-295
[58] = system: OVCAR-5
[59] = system: SK-MEL-5

O=C(/C=C(O)/C(=C/C(=O)c1ccccc1)NN=C(c1ccccc1)c1ccccc1)c1ccccc1
GI50 [1]: 24.9 µM (inactive) | GI50 [2]: 36.9 µM (inactive) | GI50 [3]: 45.2 µM (inactive) | GI50 [4]: 24 µM (inactive) | GI50 [5]: 24 µM (inactive) | GI50 [6]: 40.6 µM (inactive) | GI50 [7]: 24.4 µM (inactive) | GI50 [8]: 15.7 µM (inactive) | GI50 [9]: 25.8 µM (inactive) | GI50 [10]: 23.5 µM | GI50 [11]: 31.8 µM (inactive) | GI50 [12]: 28.1 µM (inactive) | GI50 [13]: 15.2 µM (inactive) | GI50 [14]: 31.2 µM (inactive) | GI50 [15]: 49.7 µM (inactive) | GI50 [16]: 18.9 µM (inactive) | GI50 [17]: 38.4 µM (inactive) | GI50 [18]: 49.7 µM (inactive) | GI50 [19]: 18.3 µM (inactive) | GI50 [20]: 24.9 µM (inactive) | GI50 [21]: 41.3 µM (inactive) | GI50 [22]: 31 µM (inactive) | GI50 [23]: 44.7 µM (inactive) | GI50 [24]: 25.8 µM (inactive) | GI50 [25]: 37.5 µM (inactive) | GI50 [26]: 36.1 µM (inactive) | GI50 [27]: 21 µM (inactive) | GI50 [28]: 1.57 µM (inactive) | GI50 [29]: 33.2 µM (inactive) | GI50 [30]: 17.1 µM (inactive) | GI50 [31]: 38.3 µM (inactive) | GI50 [32]: 42.3 µM (inactive) | GI50 [33]: 26.7 µM (inactive) | GI50 [34]: 3.3 µM (inactive) | GI50 [35]: 29.2 µM (inactive) | GI50 [36]: 14.1 µM (inactive) | GI50 [37]: 28.4 µM (inactive) | GI50 [38]: 51.6 µM (inactive) | GI50 [39]: 20.6 µM (inactive) | GI50 [40]: 30.2 µM (inactive) | GI50 [41]: 39.7 µM (inactive) | GI50 [42]: > 100 µM (inactive) | GI50 [43]: 34.4 µM (inactive) | GI50 [44]: 41 µM (inactive) | GI50 [45]: 26.9 µM (inactive) | GI50 [46]: 38.3 µM (inactive) | GI50 [47]: 32.4 µM (inactive) | GI50 [48]: 9.08 µM (inactive) | GI50 [49]: 31.1 µM (inactive) | GI50 [50]: 47.6 µM (inactive) | GI50 [51]: 60.4 µM (inactive) | GI50 [52]: 35.9 µM (inactive) | GI50 [53]: 85.7 µM (inactive) | GI50 [54]: 30.3 µM (inactive) | GI50 [55]: 32.4 µM (inactive) | GI50 [56]: 25.2 µM (inactive) | GI50 [57]: 23.5 µM (inactive) | GI50 [58]: > 100 µM (inactive) | GI50 [59]: 18.7 µM (inactive)

FC(F)(F)C1(C(F)(F)F)O[Si]2(OC(C(F)(F)F)(C(F)(F)F)c3ccccc32)c2ccccc21
GI50 [1]: 13.2 µM (inactive) | GI50 [2]: 16.3 µM (inactive) | GI50 [3]: 15.4 µM (inactive) | GI50 [4]: 5.98 µM (inactive) | GI50 [5]: 10.6 µM (inactive) | GI50 [6]: 14.8 µM (inactive) | GI50 [7]: 17.2 µM (inactive) | GI50 [8]: 7.53 µM (inactive) | GI50 [9]: 15.8 µM (inactive) | GI50 [10]: 17 µM | GI50 [11]: 13.4 µM (inactive) | GI50 [12]: 5.45 µM (inactive) | GI50 [13]: 10.3 µM (inactive) | GI50 [14]: 14.5 µM (inactive) | GI50 [15]: 8.24 µM (inactive) | GI50 [16]: 6.58 µM (inactive) | GI50 [17]: 11.4 µM (inactive) | GI50 [18]: 14.6 µM (inactive) | GI50 [19]: 16.5 µM (inactive) | GI50 [20]: 4.53 µM (inactive) | GI50 [21]: 9.57 µM (inactive) | GI50 [22]: 11.3 µM (inactive) | GI50 [23]: 8.75 µM (inactive) | GI50 [24]: 7.66 µM (inactive) | GI50 [25]: 10.2 µM (inactive) | GI50 [26]: 13.5 µM (inactive) | GI50 [27]: 8.67 µM (inactive) | GI50 [28]: 13.6 µM (inactive) | GI50 [29]: 17.1 µM (inactive) | GI50 [30]: 5.55 µM (inactive) | GI50 [31]: 12 µM (inactive) | GI50 [32]: 17.1 µM (inactive) | GI50 [33]: 3.95 µM (inactive) | GI50 [34]: 10.5 µM (inactive) | GI50 [35]: 11.9 µM (inactive) | GI50 [36]: 14.4 µM (inactive) | GI50 [37]: 17.4 µM (inactive) | GI50 [38]: 12 µM (inactive) | GI50 [39]: 13.7 µM (inactive) | GI50 [40]: 9.02 µM (inactive) | GI50 [41]: 19.1 µM (inactive) | GI50 [42]: 15 µM (inactive) | GI50 [43]: 14.4 µM (inactive) | GI50 [44]: 13.6 µM (inactive) | GI50 [45]: 18 µM (inactive) | GI50 [46]: 9.44 µM (inactive) | GI50 [47]: 9.95 µM (inactive) | GI50 [48]: 9.95 µM (inactive) | GI50 [49]: 12.7 µM (inactive) | GI50 [50]: 9.12 µM (inactive) | GI50 [51]: 3.69 µM (inactive) | GI50 [52]: 6.27 µM (inactive) | GI50 [53]: 7.62 µM (inactive) | GI50 [54]: 15.6 µM (inactive) | GI50 [55]: 13.7 µM (inactive) | GI50 [56]: 9.46 µM (inactive) | GI50 [57]: 5.2 µM (inactive) | GI50 [58]: 14.5 µM (inactive) | GI50 [59]: 15.5 µM (inactive)
